Patent publication US9566252B2, “Method for the alleviation of dyspareunia in women” (HORMOS MEDICAL LTD., priority 2000, dated 2017)
Read-outs that look alike come from different tables or passages of the source.

Experiments:
[1] = system: vaginal dryness; assay: Vaginal dryness symptoms by visual analogue scale (subjective estimates); type: in vivo, healthy postmenopausal female volunteers; settings: FIG. 2; for Effect on vaginal dryness, individuals' subjective estimate (visual analogue scale): change pre-treatment to 3 months, all ospemifene dosage levels (30, 60, 90 mg daily), raloxifene 60 mg daily
Experimental: The vaginal dryness symptoms were also assessed by using a visual analogue scale where the volunteers themselves recorded their subjective estimates. The scale is based on a 100-mm line on paper. The left end represents no symptom and the right end the worst possible symptom. The change from pre-treatment to 3 months estimates was assessed and considered to be indicative of the treatment efficacy.

[2] = system: vaginal epithelium; settings: for Change in maturity index for superficial cells (MI 3), mean: index 100 full estrogen, index 0 no estrogenicity; for Change in maturity index for parabasal cells (MI 1), mean: index 100 no estrogenicity, index 0 full estrogen; for Pathological changes in cervical smear samples: 3 months' treatment, any sample; for Change from baseline to post-treatment in karyopyknosis index for superficial cells, individual subjects: ospemifene 30, 60, 90 mg daily, raloxifene 60 mg daily, all cases except one
Experimental: Raloxifene (60 mg daily) was used as reference. […] There were 29 volunteers at each dose level, as well as in the raloxifene group. Ospemifene was administered in gelatine capsules containing either 30, 60 or 90 mg of ospemifene. […] The vaginal epithelium was assessed by karyopyknosis index which is a well known assessment method among the skilled persons. In this method, the vaginal fraction of the cervical smears is estimated as the percentage of the number of cells from different layers: the parabasal cell layer; the intermediate cell layer; and the superficial cell layer. Estrogenicity is seen by a shift towards superficial cell fraction. […] Samples were taken before and after the treatment (at 3 months).

[3] = system: endometrium; settings: for Increase in thickness of the endometrium, average: statistically not significant
Experimental: (§1) Tolerability and pharmacokinetics were also assessed.

[4] = clinical studies
Experimental: as §1

[5] = system: sexual activity; settings: of 70 patients followed up for 6 weeks
Source text: In the clinical study, where the effects of ospemifene on quality of life and cardiovascular parameters were studied, the patients were asked for sexual activity. The questionnaire included “worsening” or “no effect” on sexual activity. Improvement on sexual activity was not asked. When 70 patients had been followed up for 6 weeks, 27 of them had spontaneously reported to the investigators increased sexual activity. Similar reports were independently obtained from different centers of the study.

[6] = 30 mg daily perorally, 3 months
[7] = 60 mg daily perorally, 3 months
[8] = 90 mg daily perorally, 3 months

OCCOc1ccc(/C(=C(/CCCl)c2ccccc2)c2ccccc2)cc1 [Ospemifene, (deaminohydroxy)toremifene]
Effect on vaginal dryness, comparison of dose levels ([1]; 60 mg daily, 3 months): best result
Effect on vaginal dryness, individuals' subjective estimate (visual analogue scale) [1]: clear decreasing effect
Change in maturity index for superficial cells (MI 3), mean [2, 6]: +12.4
Change in maturity index for parabasal cells (MI 1), mean [2, 6]: −40
Change in maturity index for superficial cells (MI 3), mean [2, 7]: +5.5
Change in maturity index for parabasal cells (MI 1), mean [2, 7]: −26
Change in maturity index for superficial cells (MI 3), mean [2, 8]: +12.5
Change in maturity index for parabasal cells (MI 1), mean [2, 8]: −48
Pathological changes in cervical smear samples [2]: No pathological changes
Change from baseline to post-treatment in karyopyknosis index for superficial cells, individual subjects ([2]; 12 weeks' treatment): < 40
Estrogenic effect in the cervical smear ([2]; 30, 60, 90 mg daily, 3 months): weak but statistically significant estrogenic effect
Effect on vaginal atrophy ([2]; 30, 60 and 90 mg daily, 3 months, elderly female volunteers): significant decrease in vaginal atrophy
Increase in karyopyknosis index for superficial cells, single highest case ([2]; one case in the 90 mg group, 12 weeks' treatment): 45
Increase in thickness of the endometrium, average ([3]; 30 mg daily, 3 months): 0.2 mm
Increase in thickness of the endometrium, average ([3]; 60 mg daily, 3 months): 0.5 mm
Increase in thickness of the endometrium, average ([3]; 90 mg daily, 3 months): 0.5 mm
Estrogenic effect on endometrial histology ([3]; 30, 60, 90 mg daily, 3 months): weak estrogenic effect
Malignant findings in the endometrium ([3]; 30, 60, 90 mg daily, 3 months): no malignant findings
Measured values of endometrial thickness ([3]; 30, 60, 90 mg daily, all measured values): smaller than 8 mm
Tolerability [4]: excellent tolerability
Patients spontaneously reporting increased sexual activity [5]: 27

O=C(c1ccc(OCCN2CCCCC2)cc1)c1c(-c2ccc(O)cc2)sc2cc(O)ccc12 [Raloxifene, raloxifene, reference compound]
Effect on vaginal dryness, individuals' subjective estimate (visual analogue scale) [1]: only a minor decrease
Change in maturity index for superficial cells (MI 3), mean [2, 7]: −0.3
Change in maturity index for parabasal cells (MI 1), mean [2, 7]: −2
Pathological changes in cervical smear samples [2]: No pathological changes
Change from baseline to post-treatment in karyopyknosis index for superficial cells, individual subjects ([2]; 12 weeks' treatment): no one in the raloxifene group (FIG. 1D) had a significant change
